Test results as given in US20080249042A1, “All-Trans-Retinol: All-Trans-13,14-Dihydroretinol Saturase and Methods of Its Use” (UNIVERSITY OF WASHINGTON, priority 2004, published 2008).

Experiments:
[1] = Liver retinoids of Lrat-/- mice 3 h after gavage with all-trans-DROL; format: in vivo, mouse; details: 3 h post-gavage
Excerpt: Metabolism of Retinoids in Vivo. All animal experiments employed procedures approved by the University of Washington and conformed to recommendations of the American Veterinary Medical Association Panel on Euthanasia and recommendations of the Association of Research for Vision and Ophthalmology. Animals were maintained on a 12-h light and 12-h dark cycle. All manipulations were done under dim red or infrared light (>560 nm). Most experiments used 6-12-week-old mice. Lrat−/− mice were genotyped as described previously. Batten, et al. J. Biol. Chem. 279:10422-10432, 2004. Animals were maintained on a control chow diet up to 1 h prior to oral gavage. The appropriate amount of all-trans-ROL palmitate, all-trans-DROL, or all-trans-RA was dissolved in vegetable oil and administered by oral gavage 3 h prior to analysis.
Analysis of Retinoids. Liver (1 g) from retinoid gavaged or naive mice was homogenized in 2 ml of 137 mM NaCl, 2.7 mM KCl, and 10 mM sodium phosphate (pH 7.4) for 30 s using a Polytron homogenizer. 10 μl of 5 M NaOH was added to 3 ml of the ethanolic extract, and the nonpolar retinoids were extracted using 5 ml of hexane. The extraction was repeated, and the organic phases were combined, dried under vacuum, resuspended in hexane, and examined by normal phase HPLC using a normal phase column (Beckman Ultrasphere Si 5μ, 4.6×250 mm). […] The HPLC elution conditions were […], 100% buffer A for 40 min, 100% buffer B for 10 min, and 10 min equilibration in buffer A. The elution profiles of RA and DRA were monitored using an online diode array detector set at 350 and 290 nm, respectively. […] The measured area of absorbance was converted to picomoles based on a calibration of the HPLC columns using a known amount of all-trans-RA or all-trans-ROL (Sigma) and all-trans-DROL or all-trans-DRA (synthetic standards). The extraction efficiency was monitored by spiking a tissue sample with [^3H]RA (PerkinElmer Life Sciences) and monitoring the radioactivity recovered from the HPLC column. […]

RAR/RXR heterodimers = test: F9-RARE-lacZ DR5 RARE reporter cell assay; details: linear part of the dose-response curve
Description: RARE and RXRE Activation Assay. […] The RA-responsive F9 cell line was transfected with a reporter construct of an RARE derived from the human retinoic acid receptor-β gene (RAR-β) placed upstream of the Escherichia coli lacZ gene. […] Cells were grown in L15-CO2 media containing N-3 supplements and antibiotics. […] After 24 h, cells were split into 24-well plates to ensure an equal number of transfected cells in each assay well. Cells were stimulated with appropriate concentrations of all-trans-RA, 9-cis-RA, or all-trans-DRA. After 48 h, the expression of β-galactosidase was assayed as described above.

LRAT = target: T1, LRAT (Mus musculus, UniProt Q9JI60); test: Esterification assay, RPE microsomes and HEKK-LRAT cell homogenate; format: biochemical; details: 10 min, 37° C.
T1 construct: For expression Lrat coding region was amplified using the primers; expressed in transfected cells; membrane homogenate
T1 sequence (Q9JI60 1-231): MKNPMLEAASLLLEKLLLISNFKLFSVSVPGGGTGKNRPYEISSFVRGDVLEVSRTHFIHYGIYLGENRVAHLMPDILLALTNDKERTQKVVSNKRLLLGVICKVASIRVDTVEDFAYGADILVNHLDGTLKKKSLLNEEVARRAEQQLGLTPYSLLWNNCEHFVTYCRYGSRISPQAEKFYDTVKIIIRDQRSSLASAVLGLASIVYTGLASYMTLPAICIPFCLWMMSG
Excerpt: Inducible-Expression Of LRAT Protein in HEKK Cells. Mouse Lrat cDNA was cloned as described elsewhere. For expression Lrat coding region was amplified using the primers: 5′-[…]-3′ (SEQ ID NO: 11) and […] (SEQ ID NO: 12). The PCR product was ligated into the pCR-Blunt II-TOPO vector (Invitrogen) and then subcloned into the EcoRI site of pCDNA4/TO. TetR-expressing HEKK cells were transfected with the pCDNA4/TO-Lrat construct and selected with zeocin. Stable clones were verified for expression of Lrat protein using the anti-LRAT monoclonal antibody described elsewhere (2).
Esterification assay of all-trans-retinol and all-trans-13,14-dihydroretinol. HEKK-LRAT cells were homogenized in 250 mM sucrose, 10 mM Tris-HCl with the aid of a douncer. RPE microsomes were prepared as previously described. Stecher, et al. J Biol Chem 274:8577-8585, 1999. A substrate solution, 2 μL of 1 mM stock in DMF, was added to a 1.5 ml Eppendorf tube containing 20 μL of 10% BSA and 20 μL of UV-treated RPE microsomes or 100 μL of membrane homogenate of HEKK-LRAT cells and 10 mM BTP (pH 7.5) buffer to a total volume of 200 μL. […] Then 100 μL of the hexane extract was analyzed by normal-phase HPLC, using first 0.5% ethyl acetate in hexane for 10 min to separate retinyl esters and then 20% ethyl acetate in hexane for an additional 10 min to separate retinols. Elution was monitored at 290 nm and 325 nm.

## CC1=C(/C=C/C(C)=C/C=C/C(C)CC(=O)O)C(C)(C)CCC1 (stereo not drawn) [all-trans-DRA, all-trans-13,14-dihydroretinoic acid]
[1]
  Level in liver after gavage with all-trans-DROL: significant levels
RAR/RXR heterodimers
  Fold less effective than all-trans-RA in activating DR5-response elements: about 100 fold

## CC1=C(/C=C/C(C)=C/C=C/C(C)CCO)C(C)(C)CCC1 (stereo not drawn) [all-trans-DROL, all-trans-13,14-dihydroretinol]
LRAT
  Esterification by LRAT (substrate activity): as good a substrate for LRAT as all-trans-retinol
